Assay results published in patent US20230142274A1 (SIMCERE PHARMACEUTICAL CO., LTD., priority 2020, published 2023).
Where two headings read alike, the source gives them in different places.

Experiments:
WI-38 cells = test: Inhibition of human WI-38 embryonic lung cell proliferation (Cell-Titer Glo); format: cell-based; conditions: 3 days incubation, read-out: Anti-Proliferative Activity Against WI-38 cells IC50
Protocol: (§1) Introduction of the experimental principle: After the RAD51 inhibitor to be tested was co-incubated with human embryonic lung cells for a period of time, the influence of the test compound on cell proliferation was measured by a method for counting cell proliferation based on the quantitative measurement of intracellular ATP content.
Materials and Cells: WI-38 cells were purchased from ATCC; fetal bovine serum, 1640 medium and penicillin-streptomycin were purchased from Gibco Inc. (U.S.), 96-well plates were purchased from Corning Inc. (U.S.), and Cell-Titer Glo reagent was purchased from Promega Corporation (U.S.).
Cell culture: WI-38 cells were cultured in an EMEM culture medium containing 10% fetal bovine serum and 1% penicillin-streptomycin at 37° C. in an atmosphere containing 5% CO2. Cells in logarithmic growth phase could be used for experiments.
(§2) Assay of cell proliferation and viability: Cell-Titer Glo reagent was used to measure the inhibitory activities of the compounds on the proliferation of WI-38 cell strain. The concentration of cells was adjusted, and the cells were seeded in a 96-well plate and cultured at 37° C. in an atmosphere containing 5% CO2 for 24 hours. The powder of the compound was dissolved in 100% DMSO to form a 10 mM solution. 10 μl of the solution of the compound was aspirated and transferred into a 96-well compound plate containing 20 μl of DMSO solution in each well for 3-fold dilution and was then formulated to 10 serial dilutions. Thereafter, 2 μl of the solution of the compound was aspirated from the corresponding well and added correspondingly into a 96-well intermediate compound dilution plate containing 78 μl of complete culture medium in each well. The resultant was mixed well, and the plate was centrifuged at 1000 rpm for 1 minute. Finally, 10 μl of the solution of the compound was aspirated from the corresponding well of the 96-well intermediate compound dilution plate, and transferred into the corresponding well of the cell culture plate containing 90 μl of complete culture medium. The final concentration of DMSO was 0.25%. After the addition of the compound, the cells were continued to be incubated for 3 days at 37° C. in an atmosphere containing 5% CO2. Cell-Titer Glo reagent was added to measure cell viability.
% Compound inhibition was calculated and IC50 of the compound was fitted;
(§3) % Compound inhibition=1−100%×(Signal−Bottom)/(Top−Bottom)

Daudi cells = test: Inhibition of human Daudi lymphoma cell proliferation (Cell-Titer Glo); format: cell-based; conditions: 3 days incubation, read-out: Anti-Proliferative Activity Against Daudi cells IC50
Protocol: as §1, with “cancer” for “human embryonic lung”
Materials and Cells: Daudi cells were purchased from ATCC; fetal bovine serum, 1640 medium and penicillin-streptomycin were purchased from Gibco Inc. (U.S.), 96-well plates were purchased from Corning Inc. (U.S.), and Cell-Titer Glo reagent was purchased from Promega Corporation (U.S.).
Cell culture: Daudi cells were cultured in 1640 culture medium containing 10% fetal bovine serum and 1% penicillin-streptomycin at 37° C. in an atmosphere containing 5% CO2. Cells in logarithmic growth phase could be used for experiments.
as §2, with “of Daudi” for “of WI-38”, “solution” for “solution in each well”, “formulated into” for “formulated to”
% Compound inhibition was calculated and IC50 of the compound was filled;
as §3

SMILES: CC(C)OC(=O)Nc1ccc(-c2cnc([C@H]3CC[C@H](NC(=O)OC(C)C)CC3)s2)c(NS(=O)(=O)C(C)(C)C)c1 [Example 19, isopropyl trans-N-[3-(tert-butylsulfonylamino)-4-[2-[4-(isopropoxycarbonylamino)cyclohexyl]thiazol-5-yl]phenyl]carbamate]
- IC50 (WI-38 cells; Homo sapiens, 72 h): > 25000 nM
- IC50 (Daudi cells; Homo sapiens, 72 h): 960 nM

SMILES: Cc1cc(Nc2ccc(-c3cnc([C@H]4CC[C@H](NC(=O)OC(C)C)CC4)s3)c(S(=N)(=O)C3CCC3)c2)n[nH]1 (stereo partly drawn) [Example 101, isopropyl trans-(4-(5-(2-(cyclobutanesulfonimidoyl)-4-((5-methyl-1H-pyrazol-3-yl)amino)phenyl]thiazol-2-yl)cyclohexyl)carbamate]
- IC50 (WI-38 cells; Homo sapiens, 72 h): > 25000 nM
- IC50 (Daudi cells; Homo sapiens, 72 h): 28 nM

SMILES: CC(C)OC(=O)NC1CCC(c2ncc(-c3ccc(NC(=O)C4Cc5ccccc5CN4)cc3S(=O)(=O)NC(C)(C)C)s2)CC1 (stereo not drawn) [Example 13, isopropyl trans-N-[4-[5-[2-(tert-butylsulfamoyl)-4-(1,2,3,4-tetrahydroisoquinoline-3-carbonylamino)phenyl]thiazol-2-yl]cyclohexyl]carbamate]
- IC50 (WI-38 cells; Homo sapiens, 72 h): > 25000 nM
- IC50 (Daudi cells; Homo sapiens, 72 h): 410 nM

SMILES: CC(C)OC(=O)Nc1ccc(-c2cnc([C@H]3CC[C@H](NC(=O)OC(C)C)CC3)s2)c(S(=O)(=O)C(C)(C)C)c1 [Example 34, isopropyl trans-N-[3-tert-butylsulfonyl-4-[2-[4-(isopropoxycarbonylamino)cyclohexyl]thiazol-5-yl]phenyl]carbamate]
- IC50 (WI-38 cells; Homo sapiens, 72 h): > 25000 nM
- IC50 (Daudi cells; Homo sapiens, 72 h): 700 nM

SMILES: CC(C)OC(=O)Nc1ccc(-c2cnc(C34CC(NC(=O)OC(C)C)(C3)C4)s2)c(S(=O)(=O)NC(C)(C)C)c1 [Example 7, isopropyl (3-(5-(4-(isopropoxycarbonyl)amino-2-(N-(tert-butyl)sulfamoyl)phenyl)thiazol-2-yl)bicyclo[1.1.1]pent-1-yl)carbamate]
- IC50 (WI-38 cells; Homo sapiens, 72 h): > 25000 nM
- IC50 (Daudi cells; Homo sapiens, 72 h): 2590 nM

SMILES: CC(C)OC(=O)NC1CCC(c2ncc(-c3ccc(N/C(=N/C#N)NCc4ccccc4)cc3S(=O)(=O)NC(C)(C)C)s2)CC1 (stereo not drawn) [Example 14, isopropyl trans-N-[4-[5-[4-[[(E)-N-benzyl-N′-cyanocarbamoylamino]amino]-2-(tert-butylsulfamoyl)phenyl]thiazol-2-yl]cyclohexyl]carbamate]
- IC50 (WI-38 cells; Homo sapiens, 72 h): > 25000 nM
- IC50 (Daudi cells; Homo sapiens, 72 h): 450 nM

SMILES: CC(C)OC(=O)N[C@H]1CC[C@H](c2ncc(-c3ccc(Nc4ccno4)cc3S(=O)(=O)NC(C)(C)C)s2)CC1 [Example 29, isopropyl trans-(4-(5-(2-(N-(tert-butyl)sulfamoyl)-4-(isoxazol-5-ylamino)phenyl)thiazol-2-yl)cyclohexyl)carbamate]
- IC50 (WI-38 cells; Homo sapiens, 72 h): 18400 nM
- IC50 (Daudi cells; Homo sapiens, 72 h): 340 nM

SMILES: Cc1cc(Nc2ccc(-c3cnc([C@H]4CC[C@H](NC(=O)OC(C)C)CC4)s3)c(S(=O)(=O)C(C)C)c2)n[nH]1 [Example 40, isopropyl trans-(4-(5-(2-(isopropylsulfonyl)-4-((5-methyl-1H-pyrazol-3-yl)amino)phenyl)thiazol-2-yl)cyclohexyl)carbamate]
- IC50 (WI-38 cells; Homo sapiens, 72 h): 22900 nM
- IC50 (Daudi cells; Homo sapiens, 72 h): 51 nM

SMILES: CC(C)OC(=O)N[C@H]1CC[C@H](c2ncc(-c3ccc(NC(=O)NC4(c5ccccc5)CC4)cc3S(=O)(=O)NC(C)(C)C)s2)CC1 [Example 17, isopropyl trans-N-[4-[5-[2-(tert-butylsulfamoyl)-4-[(1-phenylcyclopropyl)carbamoylamino]phenyl]thiazol-2-yl]cyclohexyl]carbamate]
- IC50 (WI-38 cells; Homo sapiens, 72 h): > 25000 nM
- IC50 (Daudi cells; Homo sapiens, 72 h): 110 nM

SMILES: CC(C)OC(=O)N[C@H]1CC[C@H](c2ncc(-c3ccc(Nc4cc(C5CC5)[nH]n4)cc3S(=O)(=O)C3CC3)s2)CC1 [Example 62, isopropyl trans-N-[4-[5-[4-[(5-cyclopropyl-1H-pyrazol-3-yl)amino]-2-cyclopropylsulfonyl-phenyl]thiazol-2-yl]cyclohexyl]carbamate]
- IC50 (WI-38 cells; Homo sapiens, 72 h): > 25000 nM
- IC50 (Daudi cells; Homo sapiens, 72 h): 10 nM

SMILES: CC(C)OC(=O)N[C@H]1CC[C@H](c2ncc(-c3ccc(NC(=O)OCC4CC4)cc3S(=O)(=O)NC(C)(C)C)s2)CC1 [Example 16, isopropyl trans-N-[4-[5-[2-(tert-butylsulfamoyl)-4-(cyclopropylmethoxycarbonylamino)phenyl]thiazol-2-yl]cyclohexyl]carbamate]
- IC50 (WI-38 cells; Homo sapiens, 72 h): > 25000 nM
- IC50 (Daudi cells; Homo sapiens, 72 h): 490 nM

SMILES: Cc1cc(Nc2ccc(-c3cnc([C@H]4CC[C@H](NC(=O)OC(C)C)CC4)s3)c(S(=O)(=O)C3COC3)c2)n(C)n1 [Example 117, isopropyl trans-(4-(5-(4-((1,3-dimethyl-1H-pyrazol-5-yl)amino)-2-(oxetan-3-ylsulfonyl)phenyl)thiazol-2-yl)cyclohexyl)carbamate]
- IC50 (WI-38 cells; Homo sapiens, 72 h): 20000 nM
- IC50 (Daudi cells; Homo sapiens, 72 h): 7 nM

SMILES: CC(C)OC(=O)N[C@H]1CC[C@H](c2ncc(-c3ccc(NC(=O)COc4ccccc4)cc3S(=O)(=O)NC(C)(C)C)s2)CC1 [Example 15, isopropyl trans-N-[4-[5-[2-(tert-butylsulfamoyl)-4-[(2-phenoxyacetyl)amino]phenyl]thiazol-2-yl]cyclohexyl]carbamate]
- IC50 (WI-38 cells; Homo sapiens, 72 h): > 25000 nM
- IC50 (Daudi cells; Homo sapiens, 72 h): 280 nM

SMILES: CC(C)OC(=O)N[C@H]1CC[C@H](c2ncc(-c3ccc(Nc4cnn(CCF)c4)cc3S(=N)(=O)C3CCC3)s2)CC1 (stereo partly drawn) [Example 102]
- IC50 (WI-38 cells; Homo sapiens, 72 h): > 25000 nM
- IC50 (Daudi cells; Homo sapiens, 72 h): 17 nM

SMILES: CC(C)OC(=O)Nc1ccc(-c2cnc(N3CC4C(C3)C4NC(=O)OC(C)C)s2)c(S(=O)(=O)NC(C)(C)C)c1 (stereo not drawn) [Example 9, isopropyl endo-N-[3-(tert-butylsulfamoyl)-4-[2-[6-(isopropoxycarbonylamino)-3-azabicyclo[3.1.0]hex-3-yl]thiazol-5-yl]phenyl]carbamate]
- IC50 (WI-38 cells): > 25000 nM
- IC50 (Daudi cells): 2060 nM

SMILES: Cc1cc(Nc2ccc(-c3cnc([C@H]4CC[C@H](NC(=O)OC(C)C)CC4)s3)c(S(=O)(=O)C(C)C)c2)nn1C [Example 36, isopropyl trans-(4-(5-(4-((1,5-dimethyl-1H-pyrazol-3-yl)amino)-2-(isopropylsulfonyl)phenyl)thiazol-2-yl)cyclohexyl)carbamate]
- IC50 (WI-38 cells; Homo sapiens, 72 h): 24600 nM
- IC50 (Daudi cells; Homo sapiens, 72 h): 77 nM

SMILES: C=CC(=O)N=S(=O)(c1cc(NC(=O)OC(C)C)ccc1-c1cnc([C@H]2CC[C@H](NC(=O)OC(C)C)CC2)s1)C(C)C (relative stereo) [Example 4, isopropyl trans-N-[4-[2-[4-(isopropoxycarbonylamino)cyclohexyl]thiazol-5-yl]-3-(isopropyl-N-prop-2-enoyl-sulfonimidoyl)phenyl]carbamate]
- IC50 (WI-38 cells; Homo sapiens, 72 h): 7220 nM
- IC50 (Daudi cells; Homo sapiens, 72 h): 1010 nM

SMILES: CC(=O)Nc1ccc(-c2cnc([C@H]3CC[C@H](NC(=O)OC(C)C)CC3)s2)c(S(=N)(=O)C2CC2)c1 (stereo partly drawn) [Example 67, isopropyl trans-(4-(5-(4-acetylamino-2-(cyclopropanesulfonimidoyl)phenyl]thiazol-2-yl)cyclohexyl)carbamate]
- IC50 (Daudi cells; Homo sapiens, 72 h): 2600 nM

SMILES: CC(C)OC(=O)N[C@H]1CC[C@H](c2ncc(-c3ccc(-n4cccn4)cc3S(=O)(=O)C3CC3)s2)CC1 [Example 87, isopropyl trans-N-[4-[5-(2-cyclopropylsulfonyl-4-pyrazol-1-yl-phenyl)thiazol-2-yl]cyclohexyl]carbamate]
- IC50 (Daudi cells; Homo sapiens, 72 h): 290 nM
